Results from patent publication US20240262823A1, “PHARMACEUTICALLY ACCEPTABLE SALT OF PYRAZOLOHETEROARYL DERIVATIVE AND CRYSTAL FORM THEREOF” (JIANGSU HENGRUI PHARMACEUTICALS CO., LTD., priority 2021, published 2024).

Experiments:
[1] = Long-term/accelerated stability test of crystalline salt forms in sealed aluminum foil bags; assay type: physicochemical; settings: for Crystalline form: after storage
Protocol: The crystalline form α of mesylate, the crystalline form α of sulfate, the crystalline form I of maleate, the crystalline form a of p-toluenesulfonate and the crystalline form a of oxalate were stored in sealed aluminum foil bags and subjected to stability test under the conditions of −20° C., 4° C., 25° C./60% RH and 40° C./75% RH.

ATR enzyme = ATR enzyme (Homo sapiens (Human), UniProt Q13535); test: Inhibitory effect on ATR enzyme (HTRF, phospho-p53); assay type: biochemical
Sequence of ATR enzyme (Q13535 whole entry): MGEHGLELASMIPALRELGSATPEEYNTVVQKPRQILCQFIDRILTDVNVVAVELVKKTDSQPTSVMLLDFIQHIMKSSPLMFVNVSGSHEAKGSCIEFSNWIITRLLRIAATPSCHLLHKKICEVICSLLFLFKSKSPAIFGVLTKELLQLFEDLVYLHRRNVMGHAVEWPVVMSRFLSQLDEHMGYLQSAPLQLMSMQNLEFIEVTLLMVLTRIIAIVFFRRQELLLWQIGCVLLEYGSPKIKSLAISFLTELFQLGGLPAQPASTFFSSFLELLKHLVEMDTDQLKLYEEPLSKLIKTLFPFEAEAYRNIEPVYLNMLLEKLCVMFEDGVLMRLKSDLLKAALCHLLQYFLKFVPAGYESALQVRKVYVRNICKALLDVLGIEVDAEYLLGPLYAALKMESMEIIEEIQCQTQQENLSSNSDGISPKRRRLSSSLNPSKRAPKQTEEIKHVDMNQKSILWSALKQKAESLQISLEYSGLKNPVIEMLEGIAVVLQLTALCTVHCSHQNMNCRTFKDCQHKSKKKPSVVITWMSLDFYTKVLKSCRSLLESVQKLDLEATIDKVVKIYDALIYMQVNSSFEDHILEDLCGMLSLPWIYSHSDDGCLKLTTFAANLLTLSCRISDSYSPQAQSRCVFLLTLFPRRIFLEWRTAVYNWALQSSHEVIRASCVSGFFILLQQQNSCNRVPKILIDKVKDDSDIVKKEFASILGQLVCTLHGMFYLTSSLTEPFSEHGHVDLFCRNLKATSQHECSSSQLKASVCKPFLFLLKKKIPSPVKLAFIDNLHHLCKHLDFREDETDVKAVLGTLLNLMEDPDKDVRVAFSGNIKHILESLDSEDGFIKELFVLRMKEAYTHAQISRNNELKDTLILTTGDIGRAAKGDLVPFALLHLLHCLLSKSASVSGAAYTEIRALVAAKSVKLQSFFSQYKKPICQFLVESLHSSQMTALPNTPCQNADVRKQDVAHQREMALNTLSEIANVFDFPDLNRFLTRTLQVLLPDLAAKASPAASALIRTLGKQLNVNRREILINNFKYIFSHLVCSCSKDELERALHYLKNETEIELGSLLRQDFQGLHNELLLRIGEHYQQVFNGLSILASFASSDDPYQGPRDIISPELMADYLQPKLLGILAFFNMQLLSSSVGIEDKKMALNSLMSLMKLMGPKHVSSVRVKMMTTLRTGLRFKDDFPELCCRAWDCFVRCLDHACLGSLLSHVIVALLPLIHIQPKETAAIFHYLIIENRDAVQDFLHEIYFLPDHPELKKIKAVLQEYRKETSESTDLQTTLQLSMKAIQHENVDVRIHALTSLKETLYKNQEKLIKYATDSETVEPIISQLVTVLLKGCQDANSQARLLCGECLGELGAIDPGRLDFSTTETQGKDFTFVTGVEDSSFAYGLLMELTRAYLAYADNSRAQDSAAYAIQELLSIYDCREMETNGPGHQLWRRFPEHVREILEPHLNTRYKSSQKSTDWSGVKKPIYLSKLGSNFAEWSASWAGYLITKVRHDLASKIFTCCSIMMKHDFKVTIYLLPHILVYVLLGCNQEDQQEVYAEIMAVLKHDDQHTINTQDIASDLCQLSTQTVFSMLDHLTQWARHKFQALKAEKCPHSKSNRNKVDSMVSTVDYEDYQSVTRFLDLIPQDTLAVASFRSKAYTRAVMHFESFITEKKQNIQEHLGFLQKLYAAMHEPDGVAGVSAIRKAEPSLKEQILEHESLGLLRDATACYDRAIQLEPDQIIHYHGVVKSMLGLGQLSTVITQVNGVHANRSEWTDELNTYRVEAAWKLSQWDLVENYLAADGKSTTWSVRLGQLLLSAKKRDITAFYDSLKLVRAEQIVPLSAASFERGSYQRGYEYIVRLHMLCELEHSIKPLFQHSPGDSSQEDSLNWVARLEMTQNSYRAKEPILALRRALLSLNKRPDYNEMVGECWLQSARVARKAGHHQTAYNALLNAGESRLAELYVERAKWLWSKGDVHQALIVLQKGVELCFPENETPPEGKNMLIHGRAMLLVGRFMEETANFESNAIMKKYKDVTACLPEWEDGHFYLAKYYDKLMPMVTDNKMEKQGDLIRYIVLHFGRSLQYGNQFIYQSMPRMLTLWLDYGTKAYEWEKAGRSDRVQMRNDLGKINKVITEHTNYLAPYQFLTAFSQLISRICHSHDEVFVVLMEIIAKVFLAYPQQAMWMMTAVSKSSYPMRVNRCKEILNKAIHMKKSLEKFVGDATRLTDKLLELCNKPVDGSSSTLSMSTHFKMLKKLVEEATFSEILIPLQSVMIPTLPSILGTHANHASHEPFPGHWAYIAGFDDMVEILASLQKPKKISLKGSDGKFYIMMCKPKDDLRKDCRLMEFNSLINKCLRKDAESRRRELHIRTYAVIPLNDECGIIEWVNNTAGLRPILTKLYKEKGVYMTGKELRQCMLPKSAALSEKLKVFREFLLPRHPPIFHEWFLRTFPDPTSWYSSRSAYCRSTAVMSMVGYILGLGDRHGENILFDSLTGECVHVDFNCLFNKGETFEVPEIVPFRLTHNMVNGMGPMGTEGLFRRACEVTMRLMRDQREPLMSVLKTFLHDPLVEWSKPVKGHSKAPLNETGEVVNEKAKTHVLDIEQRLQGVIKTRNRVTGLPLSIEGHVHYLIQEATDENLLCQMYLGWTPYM
Sequence of ATR enzyme (Q8WXE1 whole entry partner): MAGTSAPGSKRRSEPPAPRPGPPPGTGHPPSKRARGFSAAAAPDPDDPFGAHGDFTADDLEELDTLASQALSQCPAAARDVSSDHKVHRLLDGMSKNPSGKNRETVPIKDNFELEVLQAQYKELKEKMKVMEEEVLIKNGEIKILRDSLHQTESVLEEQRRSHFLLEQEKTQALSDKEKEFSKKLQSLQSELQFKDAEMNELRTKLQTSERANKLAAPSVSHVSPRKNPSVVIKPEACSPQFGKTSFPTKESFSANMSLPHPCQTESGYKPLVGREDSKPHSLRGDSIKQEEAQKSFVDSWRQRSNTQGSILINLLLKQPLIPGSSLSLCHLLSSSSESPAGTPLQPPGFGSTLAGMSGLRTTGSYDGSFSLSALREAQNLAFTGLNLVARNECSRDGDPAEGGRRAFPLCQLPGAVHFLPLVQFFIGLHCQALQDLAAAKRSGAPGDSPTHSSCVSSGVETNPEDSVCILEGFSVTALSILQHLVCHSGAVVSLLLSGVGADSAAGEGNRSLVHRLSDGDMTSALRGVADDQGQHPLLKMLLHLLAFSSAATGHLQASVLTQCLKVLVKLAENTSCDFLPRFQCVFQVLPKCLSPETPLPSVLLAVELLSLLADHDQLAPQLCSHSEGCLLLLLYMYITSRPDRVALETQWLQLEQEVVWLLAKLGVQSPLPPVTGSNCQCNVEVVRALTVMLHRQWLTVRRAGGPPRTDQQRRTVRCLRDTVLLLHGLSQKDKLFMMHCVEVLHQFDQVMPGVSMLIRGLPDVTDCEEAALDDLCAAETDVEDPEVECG
Description: The following method was used to determine the inhibitory effect of the compounds disclosed herein on ATR enzyme. The experimental method was briefly described as follows:
• 1. ATR enzyme (Eurofins Pharma Discovery Services, 14-953-M) • 2. GST-tag P53 protein (Eurofins Pharma Discovery Services, 14-952-M) • 3. 384-well plate (Thermo Scientific, 267462) • 4. U-shaped bottom 96-well plate (Corning, 3795) • 5. MAb Anti-phospho p53-Eu cryptate (Cisbio, 61P08KAE) • 6. MAb Anti GST-d2 (Cisbio, 61GSTDLF) • 7. ATP solution (Promega, V916B) • 8. EDTA (Thermo Scientific, AM9260G) • 9. HEPES (Gibco, 15630-080) • 10. Microplate reader (BMG, PHERAsta)
1 nM ATR enzyme, 50 nM P53 protein, 7.435 μM ATP and small molecule compounds of different concentrations (serially 3-fold diluted from 1 μM to the 11th concentration) were mixed and incubated at room temperature for 2 h. A terminating buffer (12.5 mM HEPES, 250 mM EDTA) was added. The mixture was well mixed before 0.42 ng/well of mAb anti-phospho p53-Eu cryptate and 25 ng/well of mAb anti GST-d2 were added. The mixture was incubated overnight at room temperature, and the fluorescence signals at 620 nm and 665 nm were detected using a PHERAstar system. Data were processed using GraphPad software.

LoVo cells = test: Cell proliferation assay (intracellular ATP content, CellTiter-Glo); assay type: cell-based, human; settings: 3 days
Description: The following method evaluates the inhibitory effect of the compounds disclosed herein on the proliferation of LoVo cells via IC50 by measuring the intracellular ATP content. The experimental method was briefly described as follows:
• 1. LoVo, human colon cancer cells (Cobioer, Nanjing, CBP60032) • 2. Fetal bovine serum (GIBCO, 10091-148) • 3. F-12K Medium (Gibco, 21127030) • 4. CellTite-Glo reagent (Promega, G7573) • 5. 96-well cell culture plate (Corning, 3903) • 6. Pancreatin (Invitrogen, 25200-072) • 7. Microplate reader (BMG, PHERAsta) • 8. Cell counter (Countstar, Shanghai, IC1000)
LoVo cells were cultured in an F-12K culture medium containing 10% of FBS, and passaged twice or thrice a week in a passage ratio of 1:3 or 1:5. During passage, cells were digested by pancreatin, transferred to a centrifuge tube, and centrifuged for 3 min at 1200 rpm. The supernatant was discarded, and fresh culture medium was added to resuspend the cells. To a 96-well cell culture plate, 90 μL of the cell suspension was added at a density of 3.88×10^4 cells/mL. To peripheral wells of the 96-well plate, only 100 μL of complete medium was added. […]
The test samples were each diluted to 2 mM in DMSO and serially 3-fold diluted to the 10th concentration. […] The chemiluminescence signals were read by a PHERAstar system, and the data were processed by GraphPad software.

[2] = Pharmacokinetic study in rats after intragastric administration; assay type: in vivo; settings: both sexes, rat, plasma, po, SD rats, 2 mg/kg
Protocol: The drug concentrations in the plasma of the test animals (rats) at different time points after intragastric administration of the compound of Example 1 were determined by an LC/MS/MS method. The pharmacokinetic behavior in rats of the compound disclosed herein was studied and its pharmacokinetic profile was evaluated.
12 healthy adult SD rats (half male and half female; purchased from Vital River) were evenly divided into 3 groups of 4.
A certain amount of the compound was added to a mixed solvent containing 5% of DMSO, 5% of Tween 80 and 90% of normal saline to obtain a colorless and clear solution.
SD rats were intragastrically administered with the compound after fasting overnight, at a dose of 2 mg/kg and a volume of 10.0 mL/kg.
Rats were intragastrically administered with the compound of Examples 1. 0.2 mL of blood was collected from the orbit pre-dose and at 0.25, 0.5, 1.0, 2.0, 4.0, 6.0, 8.0, 11.0 and 24.0 h post-dose. The blood samples were transferred to EDTA-K2kk anticoagulation tubes, centrifuged at 4° C. and 11000 rpm for 5 min to separate out plasma. The plasma samples were stored at −20° C. The rats were fed 2 h after administration.
The plasma concentration of the compound in rats after intragastric administration was determined: 25 μL of rat plasma at each time point post-dose was mixed with 50 μL of internal standard and 175 μL of acetonitrile; the mixture was vortexed for 5 min and centrifuged for 10 min at 4000 rpm. 1 μL of supernatant was taken for LC/MS/MS analysis.

[3] = long-term/accelerated stability test, overall
[4] = Initial, printed in the 25° C./60% RH row

Row | Structure (SMILES) | Purity (%) ([1]; 4° C., 1 month) | Purity (%) ([1]; 4° C., 2 months) | Purity (%) ([1]; 4° C., 3 months) | Crystalline form ([1]; 4° C.) | Purity (%) ([1]; 25° C./60% RH, 1 month) | Purity (%) ([1]; 25° C./60% RH, 2 months) | Purity (%) ([1]; 25° C./60% RH, 3 months) | Crystalline form ([1]; 25° C./60% RH) | Chemical stability (in words) ([1]; 40° C. and 75% RH) | Purity (%) ([1]; 40° C./75% RH, 1 month) | Purity (%) ([1]; 40° C./75% RH, 2 months) | Purity (%) ([1]; 40° C./75% RH, 3 months) | Crystalline form ([1]; 40° C./75% RH) | Purity (%) ([1]; Initial) | Purity (%) ([1]; −20° C., 1 month) | Purity (%) ([1]; −20° C., 2 months) | Purity (%) ([1]; −20° C., 3 months) | Crystalline form ([1]; −20° C.) | Chemical stability (in words) [1, 3] | Purity (%) [1, 4] [%] | also measured
1 | CC1COCCN1c1cc(C(C)(C)C#N)c2c(n1)c(-c1cc[nH]n1)nn2C.O=C(O)C=CC(=O)O (stereo not shown) [Crystalline form I of maleate] | 98.99 | 98.99 | 99.00 | Unchanged | 98.84 | 98.82 | 98.77 | Unchanged | slightly degraded | 98.59 | 98.26 | 98.30 | Unchanged | 98.97 | 99.04 | 99.00 | 99.00 | Unchanged |  |  | 
2 | CC1COCCN1c1cc(C(C)(C)C#N)c2c(n1)c(-c1cc[nH]n1)nn2C.CC1COCCN1c1cc(C(C)(C)C#N)c2c(n1)c(-c1cc[nH]n1)nn2C.O=C(O)C(=O)O (stereo not shown) [Crystalline form a of oxalate] | 99.54 | 99.60 | 99.55 | Unchanged | 99.53 | 99.58 | 99.52 | Unchanged |  | 99.40 | 99.39 | 99.40 | Unchanged | 99.57 | 99.57 | 99.51 | 99.46 | Unchanged | relatively stable |  | 
3 | CC1COCCN1c1cc(C(C)(C)C#N)c2c(n1)c(-c1cc[nH]n1)nn2C.Cc1ccc(S(=O)(=O)O)cc1 (stereo not shown) [Crystalline form a of p-toluenesulfonate] | 98.13 | 98.19 | 98.17 | Unchanged | 98.41 | 98.07 | 98.18 | Unchanged |  | 97.31 | 96.90 | 95.57 | Unchanged | 98.69 | 98.46 | 98.46 | 98.66 | Unchanged | slightly poor stability |  | 
4 | C[C@@H]1COCCN1c1cc(C(C)(C)C#N)c2c(n1)c(-c1cc[nH]n1)nn2C [Example 1, (R)-2-methyl-2-(1-methyl-5-(3-methylmorpholino)-3-(1H-pyrazol-3-yl)-1H-pyrazolo[4,3-b]pyridin-7-yl)propanenitrile] |  |  |  |  |  |  |  |  |  |  |  |  |  |  |  |  |  |  |  |  | IC50 (ATR enzyme; 1 nM ATR enzyme, 50 nM P53 protein, 7.435 μM ATP, 2 h, read-out: IC50 for ATR enzyme inhibition): 3 nM; Max Inhibition (%) (ATR enzyme; ATR enzyme): 100%; Max Inhibition (%) (LoVo cells): 93%; Vd/F ([2]; read-out: Apparent volume of distribution Vz/F): 2.06 ± 1.22 L/kg; AUC ([2]; read-out: Area under curve AUC): 3200 ± 2750 ng·h/mL; CL/F ([2]; read-out: Clearance CL/F): 17.7 ± 12.4 mL/min/kg; half-life ([2]; read-out: Half-life T1/2 (converted)): 2.62 ± 2.48 h; Cmax ([2]; read-out: Plasma concentration Cmax): 1110 ± 394 ng/mL; MRT ([2]; read-out: Residence time MRT): 3.08 ± 2.31 h

Continued, in another order:

Row | Purity (%) ([1]; 4° C., 1 month) | Purity (%) ([1]; 4° C., 2 months) | Purity (%) ([1]; 4° C., 3 months) | Crystalline form ([1]; 4° C.) | Purity (%) ([1]; 25° C./60% RH, 1 month) | Purity (%) ([1]; 25° C./60% RH, 2 months) | Purity (%) ([1]; 25° C./60% RH, 3 months) | Crystalline form ([1]; 25° C./60% RH) | Chemical stability (in words) ([1]; 40° C. and 75% RH) | Purity (%) ([1]; 40° C./75% RH, 1 month) | Purity (%) ([1]; 40° C./75% RH, 2 months) | Purity (%) ([1]; 40° C./75% RH, 3 months) | Crystalline form ([1]; 40° C./75% RH) | Purity (%) ([1]; Initial) | Purity (%) ([1]; −20° C., 1 month) | Purity (%) ([1]; −20° C., 2 months) | Purity (%) ([1]; −20° C., 3 months) | Crystalline form ([1]; −20° C.) | Chemical stability (in words) [1, 3] | Purity (%) [1, 4] [%] | Structure (SMILES) | also measured
5 | 98.66 | 98.65 | 98.64 | Unchanged | 98.53 | 98.54 | 98.62 | Unchanged | slightly degraded | 97.00 | 97.56 | 95.66 | Unchanged | 98.72 | 98.73 | 98.69 | 98.61 | Unchanged |  | 98.49 | CC1COCCN1c1cc(C(C)(C)C#N)c2c(n1)c(-c1cc[nH]n1)nn2C.CS(=O)(=O)O (stereo not drawn) [Crystalline form α of mesylate] | 
6 | 97.07 | 97.29 |  | Unchanged | 93.00 | 92.90 |  | Unchanged |  | 89.37 | 83.97 |  | Unchanged | 97.55 | 97.62 | 97.56 |  | Unchanged | slightly poor stability | 97.70 | CC1COCCN1c1cc(C(C)(C)C#N)c2c(n1)c(-c1cc[nH]n1)nn2C.O=S(=O)(O)O (stereo not drawn) [Crystalline form α of sulfate] | 
